From patent US20240317727A1 (Duke University, priority 2018, published 2024)

Experiments:
HCT-116 = test: NCI60 cell growth and viability: HCT-116; format: cell-based; settings: HCT-116, Colon Cancer, two days
PC-3 = test: NCI60 cell growth and viability: PC-3; format: cell-based; settings: PC-3, Prostate Cancer, two days
[1] = test system: heat shock induced chaperone (Hsp25 and Hsp70) expression; test: Heat shock induced chaperone expression in MEFs, immunoblotting; format: cell-based, mouse; settings: heat shock 42° C. 30 mins, 6-hour recovery, FIG. 3
Experimental: The MEFs were then subjected to heat shock stress at 42° C. for 30 mins to activate HSF1. After heat shock, the MEFs were incubated at 37° C. for a 6-hour recovery. The whole cell lysates were collected at the end of the experiment, and proteins of interest, including Hsp25, Hsp70, HSF1 and GAPDH (as loading control) were assessed by immunoblotting with the corresponding antibody.

TK-10 = test: NCI60 cell growth and viability: TK-10; format: cell-based; settings: TK-10, Renal Cancer, two days
HS 578T = test: NCI60 cell growth and viability: HS 578T; format: cell-based; settings: Breast Cancer, two days
OVCAR-5 = test: NCI60 cell growth and viability: OVCAR-5; format: cell-based; settings: OVCAR-5, Ovarian Cancer, two days
IGROV1 = test: NCI60 cell growth and viability: IGROV1; format: cell-based; settings: IGROV1, Ovarian Cancer, two days
[2] = Homo sapiens, 48 h, read-out: log10 [GI50 (M)] (converted)
[3] = Homo sapiens, 48 h, read-out: log10 [LC50 (M)] (converted)

## O=C(Nc1ccc(F)cc1)Nc1ccc(Cl)c([N+](=O)[O-])c1 [Compound 0017, 1-(4-chloro-3-nitrophenyl)-3-(4-fluorophenyl)urea]
HCT-116
  log10 [TGI (M)]: −4.93 log10 M
HCT-116; [2]
  GI50: 3.09e-06 M
HCT-116; [3]
  CC50: 3.47e-05 M
PC-3; [2]
  GI50: 1.58e-06 M
PC-3; [3]
  CC50: 4.37e-05 M
PC-3
  log10 [TGI (M)]: −4.95 log10 M
[1]
  heat shock induced chaperone (Hsp25 and Hsp70) expression: dose-dependently inhibited
TK-10; [2]
  GI50: 4.07e-06 M
TK-10; [3]
  CC50: 6.92e-05 M
TK-10
  log10 [TGI (M)]: −4.70 log10 M
HS 578T
  log10 [TGI (M)]: −4.62 log10 M
HS 578T; [2]
  GI50: 3.98e-06 M
HS 578T; [3]
  CC50: ≥ 0.0001 M
OVCAR-5; [2]
  GI50: 3.55e-06 M
OVCAR-5; [3]
  CC50: 6.46e-05 M
OVCAR-5
  log10 [TGI (M)]: −4.83 log10 M
IGROV1; Homo sapiens, IGROV-1, 48 h, read-out: log10 [GI50 (M)] (converted)
  GI50: 4.79e-06 M
IGROV1; Homo sapiens, IGROV-1, 48 h, read-out: log10 [LC50 (M)] (converted)
  CC50: 7.41e-05 M
IGROV1
  log10 [TGI (M)]: −4.73 log10 M
